This assay deals with T1, human macrophage elastase (HME/hMMP-12) (Homo sapiens, UniProt P39900).
T1 construct: 0.5 nM HME; purchased R&D Systems 917-MP
In words: In vitro HME inhibition test (standard / high-sensitivity), without BSA. In kind it is biochemical. To be noted: absence of serum albumin (BSA). An excerpt: The activity of the compounds according to the invention towards HME (MMP-12) is ascertained in an in vitro inhibition test. The HME-mediated amidolytic cleavage of a suitable peptide substrate leads herein to a fluorescent light increase. The signal intensity of the fluorescent light is directly proportional to the enzyme activity. The active concentration of a test compound at which half of the enzyme is inhibited (50% signal intensity of the fluorescent light) is given as IC50 value.
In a 384 hole microtiter plate, in a test volume of in total 41 μl of the test buffer (0.1 M HEPES pH 7.4, 0.15 M NaCl, 0.03 M CaCl2, 0.004 mM ZnCl2, […], 0.005% Brij®), the enzyme (0.5 nM HME; R&D Systems, 917-MP, autocatalytic activation according to the manufacturer's instructions) and the intramolecularly quenched substrate [5 μM Mca-Pro-Leu-Gly-Leu-Glu-Glu-Ala-Dap(Dnp)-NH2; Bachem, M-2670] are incubated in the absence and presence of the test substance (as solution in DMSO) for two hours at 37° C. The fluorescent light intensity of the test batches is measured (excitation 323 nm, emission 393 nm). The IC50 values are ascertained by plotting the fluorescent light intensity against the active ingredient concentration.
If subnanomolar IC values are produced for high potent test substances in the standard HME inhibition test described above, then a modified test is used for their more precise determination. Here, a ten-fold lower enzyme concentration is used (final concentration e.g. 0.05 nM), in order to achieve an increased sensitivity of the test. The incubation time of the test is accordingly chosen to be longer (e.g. 16 hours).
Table 1 below gives the IC50 values from these HME inhibition tests for the working examples of the present invention and also for two structurally related comparison compounds from the prior art (as racemate or separated enantiomers)→(sometimes as average values from several independent individual determinations and rounded to two significant places). The IC50 values were determined for racemates and enantiomers from differently generated DMSO stock solutions. Whereas an automatically created DMSO stock solution from the internal substance logistics was used for racemates by means of a standard method, for enantiomers and for a more precise direct comparison of the enantiomers with one another, in each case a freshly produced, manually prepared DMSO stock solution was used.

The structures appear in SMILES notation.

T1 sequence (P39900 106-470): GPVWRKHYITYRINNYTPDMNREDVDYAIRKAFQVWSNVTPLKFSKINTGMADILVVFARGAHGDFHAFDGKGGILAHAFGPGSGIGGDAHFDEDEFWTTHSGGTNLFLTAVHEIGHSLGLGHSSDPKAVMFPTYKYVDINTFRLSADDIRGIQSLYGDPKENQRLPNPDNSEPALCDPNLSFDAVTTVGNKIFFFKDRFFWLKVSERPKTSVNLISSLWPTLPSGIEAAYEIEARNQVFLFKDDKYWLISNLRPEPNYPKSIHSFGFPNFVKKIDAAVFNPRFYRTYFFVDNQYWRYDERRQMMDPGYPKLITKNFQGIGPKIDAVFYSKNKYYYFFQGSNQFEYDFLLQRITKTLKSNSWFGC

In the case of `O=C(O)[C@@H]1[C@@H](Cn2nnc3ccccc3c2=O)CC[C@H]1C(=O)c1ccc(OCc2ccccc2)cc1` [Example 3, (−)-(1R,2R,5S)-2-[4-(Benzyloxy)benzoyl]-5-[(4-oxo-1,2,3-benzotriazin-3(4H)-yl)methyl]cyclopentanecarboxylic acid], the IC50 was determined as 14 nM.

The compound `CCCCCOc1ccc(C(=O)CC(CCn2nnc3ccccc3c2=O)C(=O)O)cc1` (single isomer, unassigned; enantiomer 2) [Comparative Example B-3, (−)-4-Oxo-2-[2-(4-oxo-1,2,3-benzotriazin-3(4H)-yl)ethyl]-4-[4-(pentyloxy)phenyl]butanoic acid (enantiomer 2)] displayed an IC50 of 160 nM.

As for `O=C(O)[C@@H]1[C@@H](Cn2nnc3ccccc3c2=O)CC[C@H]1C(=O)c1ccc(-c2ccc(Cl)cc2)cc1` (single isomer, unassigned; enantiomer 1) [Comparative Example A-2, (1RS,2RS,5SR)-2-[(4′-chlorobiphenyl-4-yl)carbonyl]-5-[(4-oxo-1,2,3-benzotriazin-3(4H)-yl)methyl]cyclopentanecarboxylic acid (enantiomer 1)], the IC50 is 66 nM.

Source of the values: US20170119776A1, “CHIRAL 2,5-DISUBSTITUTED CYCLOPENTANECARBOXYLIC ACID DERIVATIVES AND USE THEREOF” (BAYER PHARMA AKTIENGESELLSCHAFT, priority 2014, published 2017).
